Measured values from patent US7807368B2, “Cyclin-dependent kinase inhibitors as targets for opiod growth factor treatment” (priority 2006, dated 2010).
“Also recorded” adds a separate entry of the source.

Assays:
p21/Cdk2 complex = assay: Cdk2 immunoprecipitation, p21/Cdk2 and cyclin E/Cdk2 complexes in BxPC-3 cells; format: cell-based, human
Source text: Cell extracts were subjected to immunoprecipitation using antibodies against Cdk2 and protein A beads. Immunoprecipitates were separated on a 15% SDSPAGE gel, and membrane blots probed with p21 antibodies (1:100), and developed using a chemiluminescence Western blotting detection system. Blots were reprobed with Cdk2 antibody (1:200).

p21 [1] = assay: Western blot of p21 in Capan-2 cells; format: cell-based, human; conditions: 3 hours
Experimental: (§1) Human pancreatic cancer cell lines BxPC-3, PANC-1, and Capan-2 were obtained from the American Type Culture Collection (Manassas, Va.), and cultured in RPMI, Dulbecco's Modified Medium, or McCoy's 5A medium, respectively. All media were supplemented with 10% fetal bovine serum, 1.2% sodium bicarbonate, and 0.25% antibiotics (5000 units/ml penicillin, 5 μg/ml streptomycin and 10 μg/ml neomycin). OGF was purchased from Sigma-Aldrich (St. Louis, Mo.), dissolved in sterile water, and used at a final concentration of 10^−6 M.
(§2) Synchronized cells (2×10^6) from each treatment were solubilized in 200 μl RIPA buffer (1×PBS, 10 μM IGEPAL, 1 mg/ml SDS, 5 mg/ml deoxycholic acid), containing protease and phosphatase inhibitors (2 μg/ml aprotinin, 3 mg/ml phenylmethyl sulfonyl fluoride, 1 mM sodium orthovanidate, 1 μM okadaic acid). Total protein concentrations were measured using the DC protein assay kit (Bio-Rad Laboratories, Hercules, Calif.). Equal amounts of protein (40 μg) were subjected to 10% SDS-PAGE followed by transfer of proteins onto polyvinylidene difluoride (Millipore, Billerica, Mass.) using standard protocols.
The p21-targeted siRNAs were obtained from Santa Cruz Biotechnology, and negative control siRNAs were purchased from Ambion (Ambion, Inc., Austin, Tex.). For transfection, 2×10^5 cells per well were seeded in 6-well plates containing 1 ml of media without antibiotics. […]

[2] = tested on: Normal Human Neo-Epidermal Keratinocyte cells (NHEK); assay: Growth of NHEK cells; format: cell-based; conditions: 10^-6 M OGF
Experimental: OGFr is required for OGF action on growth. Normal Human Neo-Epidermal Keratinocyte cells (NHEK) were transfected with OGFr siRNAs or control siRNAs for 72 h in the presence of 10^−6 M OGF, 10^−6 M NTX, or sterile water. Cells were harvested at 72 h and counted with a hemacytometer. Data represent means±SE for 2 independent experiments. Cell numbers differed from wt cells or cells transfected with the negative control siRNA and treated with sterile water at p<0.05 (*), p<0.01 (**), or […]. […] At 72 hr, OGF-treated cultures had 20% fewer cells and at 96 hr, OGF-treated cultures had 32% fewer cells than sterile-water treated control cultures.

p21 [3] = assay: Western blot of p21, p27 and Cdk2 in BxPC-3 cells; format: cell-based, human
Experimental: as §2
The following antibodies were purchased from commercial sources: phospho-Rb (Ser795), phospho-Rb (Ser807/811) (Cell Signaling Technology, Beverly, Mass.); Cdk2, p57 (Santa Cruz Biotechnology, Santa Cruz, Calif.); p21, p27, total Rb (BD PharMingen, San Diego, Calif.); β-actin (Clone AC-15, Sigma-Aldrich).
Membranes were probed with secondary anti-rabbit or anti-mouse horseradish peroxidase-conjugated antibodies (GE Healthcare-Amersham Biosciences, Piscataway, N.J.), and developed using a chemiluminescence Western blotting detection system.
To determine equal loading of total protein samples, blots were re-probed with monoclonal antibody against β-actin at a dilution of 1:2000. If necessary, membranes were processed in stripping buffer (62.5 mM Tris-HCI and 100 mM β-mercaptoethanol/2% SDS, pH 6.7) at 50° C. before being re-probed.
To quantify expression levels or kinase activity, the optical density of each band was determined by densitometry and analyzed by QuickOne (Bio-Rad Laboratories). Each value was normalized to β-actin from the same blot. To report the changes due to OGF treatment, we calculated the fold increase by dividing the normalized value from the OGF treated samples by the normalized value of control samples at each time point; thus, increases due to OGF have values greater than one, and decreases due to OGF have values less than one. For all Western blot analyses, 3 or more independent experiments were performed.
(§3) The p21-targeted siRNAs were obtained from Santa Cruz Biotechnology, and negative control siRNAs were purchased from Ambion (Ambion, Inc., Austin, Tex.). For transfection, 2×10^5 cells per well were seeded in 6-well plates containing 1 ml of media without antibiotics. For each well, 1 μl of siRNA stock (20 μM) was mixed with 175 μl of serum-free media. Two μl of Oligofectamine reagent (Invitrogen, Carlsbad, Calif.) was added to prewashed cells in each well, making the final concentration for siRNA approximately 20 nM. Cells were incubated for 4 hours at 37° C. prior to the addition of OGF. Eighteen hours later, 1 ml fresh complete media with or without OGF was added to the cultures; media and OGF were replaced daily. At the indicated time points, cells were collected for growth curves or Western blotting.

SCC-1 cells = assay: Growth of SCC-1 cells transfected with p16 siRNA or negative control siRNA; format: cell-based, human; conditions: 10^-6 M OGF; for reduction in growth: negative control siRNA-transfected SCC-1 cells
Experimental: The p16-targeted siRNAs (antisense:5′ […]-3′; sense (SEQ ID NO:5): 5′ […]-3′(SEQ ID NO:6) were obtained as ready-annealed, purified duplex probes (Invitrogen, Carlsbad, Calif.). For transfection, 2×10^5 cells per well were seeded in 6-well plates containing 1 ml of serum-free media without antibiotics. In each well, 20 nM of p16-siRNA or control siRNA solutions in serum-free media were added. Cells were incubated for 4 h at 37° C. prior to the addition of OGF. Cultures were incubated for additional 20 h, and then 1 ml fresh complete media either lacking or containing OGF was added. At the indicated time points, cells were collected for growth curves or Western blotting. Three or more independent experiments were conducted. The control siRNAs were purchased from Ambion.

Capan-2 cells = assay: Growth curves of Capan-2 cells transfected with p21 siRNA or negative control siRNA; format: cell-based, human
Experimental: as §1, §3

[Met^5]-enkephalin [OGF]
levels of the p21/Cdk2 complex (p21/Cdk2 complex; 3, 6, 9, 12, 15, 18, and 21 hours, significant (p<0.05) at 15 hours): elevated at all time points; also recorded: increase at 9, 12, 15, 18, and 21 hours | level of the cyclin E/Cdk2 complex (p21/Cdk2 complex; after treatment with OGF): no change | p21 expression relative to control cultures (p21 [1]): increased p21 expression | fewer cells than control cultures ([2]; 72 hr): 20% | fewer cells than control cultures ([2]; 96 hr): 32% | doubling time ([2]; growth curve data): 57.1 h | expression of the cell cycle inhibitor p27 (p21 [3]; OGF treatment): no significant effect | expression of Cdk2 protein (p21 [3]; following OGF exposure): did not change | p21 expression (p21 [3]; synchronized BxPC-3 cells, 9 hours, 10^-6 M OGF, 10^-5 M naloxone): significantly upregulated; also recorded: significantly elevated | Cell numbers vs control levels (SCC-1 cells; FIG. 4 growth curves, p<0.05): significantly reduced | reduction in growth (SCC-1 cells; 72 h): 24% | reduction in growth (SCC-1 cells; 96 h): 40% | effect on growth (Capan-2 cells; Capan-2 cells transfected with negative control siRNA, 48, 72, and 96 hours): did depress growth | effect on growth of cells lacking p21 (Capan-2 cells; Capan-2 cells transfected with p21 siRNA): no inhibitory action
